The values below come from ChEMBL document CHEMBL3046538, “Synthesis of simplified herboxidiene aromatic hybrids” (2000).

Common to all, as to type: functional
The subject of one test is Amaranthus spinosus. Briefly: Herbicidal activity against Amaranthus spinosus assessed as control at 1 kg/hacter post-emergently.
A further test has as its system Solanum. Briefly: Herbicidal activity against Solanum assessed as control at 1 kg/hacter post-emergently.
Test [1] can be described thus: Herbicidal activity against biennial weeds assessed as control at 1 kg/hacter post-emergently.
For the next test, the system named is Abutilon. Nature of the test: Herbicidal activity against Abutilon assessed as control at 1 kg/hacter post-emergently.

As to `CCCC[C@H]1O[C@H]1CCOc1cccc([C@@H]2CCC[C@H](CC(=O)OC)O2)c1`, the Efficacy was 30% with Amaranthus spinosus, 90% in the test on Solanum, 10% in test [1] and 10% with Abutilon.

On to `COC(=O)C[C@H]1CC[C@H](C)[C@@H](/C(C)=C/C=C/[C@@H](C)C[C@@]2(C)O[C@@H]2[C@H](C)[C@@H](OC)[C@@H](C)O)O1` [HERBOXIDIENE METHYL ESTER], for which the Efficacy (in the test with Amaranthus spinosus; in the test with Solanum; in test [1]; with Abutilon) was 100% throughout.
